Test results as given in paper doi:10.1101/2024.07.10.602875v1 (biorxiv, 2024).

Legend:
PfIMPα = target: T1, PfIMPα (Plasmodium falciparum, UniProt Q8IAW0); assay: intrinsic tryptophan fluorescence quenching; format: binding
T1 sequence (Q8IAW0 1-545): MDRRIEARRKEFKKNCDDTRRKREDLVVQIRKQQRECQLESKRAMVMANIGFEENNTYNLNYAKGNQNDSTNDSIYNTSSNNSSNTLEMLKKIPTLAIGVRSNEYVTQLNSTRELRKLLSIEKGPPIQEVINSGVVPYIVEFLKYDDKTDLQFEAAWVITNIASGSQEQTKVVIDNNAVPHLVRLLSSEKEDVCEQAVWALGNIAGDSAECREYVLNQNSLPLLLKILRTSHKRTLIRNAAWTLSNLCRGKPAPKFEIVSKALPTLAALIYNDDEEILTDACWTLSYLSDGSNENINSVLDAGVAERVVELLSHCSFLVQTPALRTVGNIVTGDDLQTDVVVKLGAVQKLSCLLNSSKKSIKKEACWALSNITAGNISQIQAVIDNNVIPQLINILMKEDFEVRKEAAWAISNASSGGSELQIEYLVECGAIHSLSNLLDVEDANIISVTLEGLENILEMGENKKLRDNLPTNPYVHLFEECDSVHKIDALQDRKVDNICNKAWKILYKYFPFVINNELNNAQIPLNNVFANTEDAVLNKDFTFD

TgIMPα [1] = target: T2, TgIMPα (Toxoplasma gondii, UniProt A0A125YID0); assay: intrinsic tryptophan fluorescence quenching; format: binding
T2 sequence (A0A125YID0 1-545): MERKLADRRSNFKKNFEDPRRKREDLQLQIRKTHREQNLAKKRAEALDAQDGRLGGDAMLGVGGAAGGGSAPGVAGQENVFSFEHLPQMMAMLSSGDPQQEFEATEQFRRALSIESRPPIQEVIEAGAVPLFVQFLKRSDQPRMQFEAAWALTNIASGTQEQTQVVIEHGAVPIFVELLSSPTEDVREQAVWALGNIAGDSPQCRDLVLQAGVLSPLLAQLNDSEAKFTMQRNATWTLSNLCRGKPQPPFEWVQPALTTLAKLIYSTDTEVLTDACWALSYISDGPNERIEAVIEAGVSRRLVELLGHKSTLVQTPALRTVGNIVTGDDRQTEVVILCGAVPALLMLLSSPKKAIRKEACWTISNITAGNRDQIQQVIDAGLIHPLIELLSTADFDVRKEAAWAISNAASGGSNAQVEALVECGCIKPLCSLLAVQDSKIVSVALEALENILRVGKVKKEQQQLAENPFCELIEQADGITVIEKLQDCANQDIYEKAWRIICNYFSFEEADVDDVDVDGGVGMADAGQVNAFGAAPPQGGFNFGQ

TgIMPα [2] = target: T2, TgIMPα; assay: AlphaScreen, inhibition of IMPα:NLS interaction; format: binding
T. gondii = assay: microbe, parasite or virus in culture; parameters: species or system T. gondii RH-luciferase in HFF; details: Toxoplasma gondii, read-out: Cell viability IC50 (µM)

IC50 (PfIMPα) [µM]	SMILES	IC50 (TgIMPα [1]) [µM]	IC50 (TgIMPα [2]) [µM]	IC50 (T. gondii) [µM]
19.9 ± 3.7	CC(C)(C)c1ccc(S(=O)(=O)/C=C/C#N)cc1 [Bay 11-7085]	27.7 ± 9.4		
	Cc1ccc(S(=O)(=O)/C=C/C#N)cc1 [Bay 11-7082]	17.5 ± 3.3	8.2 ± 1.3	1.06 ± 0.07
